Tests used:
Assay type in all cases: in vivo
Amaranthus retroflexus [1] = experiment: Farming soil treatment test; details: soil surface spray prior to weed growth, 30 days
Description: (§1) Field soil was filled into a 1/6000 are pot followed by seeding with Digitaria cilaris, Chenopodium album and Amaranthus retroflexus and covering with soil.
(§2) Wettable powders of compounds of formula (I) shown in Table 1 prepared in compliance with the preparation examples were diluted. with water to the prescribed amount of chemical and uniformly sprayed onto each soil surface layer using 100 liters of sprayed water per 10 are prior to weed growth following seeding.
(§3) After treating for 30 days in a glass greenhouse at an average atmospheric temperature of 30° C., the herbicidal efficacy thereof was investigated.
(§4) Evaluation of herbicidal efficacy was carried out in the same manner as the above-mentioned Test Example 1.

Chenopodium album [2] = experiment: Farming soil treatment test; details: soil surface spray prior to weed growth, 30 days
Description: as §1, §2, §3, §4

Digitaria ciliaris [3] = experiment: Farming soil treatment test; details: soil surface spray prior to weed growth, 30 days
Description: as §1, §2, §3, §4

Digitaria ciliaris [4] = experiment: Weed foliar treatment test (Test 4, 4.0 to 5.0 leaf stage); details: 10 g a.i./10a; foliar spray at 4.0 to 5.0 leaf stage of Digitaria ciliaris (plant height 10 cm to 15 cm); 20 days
Description: (§5) Field soil was filled into a 1/4500 are pot followed by seeding with Digitaria ciliaris and Galinsoga parviflora, covering with soil and cultivating in a glass greenhouse at an average atmospheric temperature of 25° C.
(§6) Wettable powders of Target Compound (I) shown in Table 1 prepared in compliance with the preparation examples were diluted with water to the prescribed amount of chemical and uniformly sprayed onto the weeds using 100 liters of sprayed water per 10 are when Digitaria ciliaris had grown to the 4.0 to 5.0 leaf stage (plant height: 10 cm to 15 cm).
(§7) After treating for 20 days in a glass greenhouse at an average atmospheric temperature of 25° C., the herbicidal efficacy thereof was investigated.
as §4

Galinsoga parviflora = experiment: as above; details: 10 g a.i./10a; foliar spray at 4.0 to 5.0 leaf stage of Digitaria ciliaris; 20 days
Description: as §5, §6, §7, §4

Oryza sativa = experiment: Paddy herbicidal activity test, phytotoxicity to transplanted rice; details: rice transplanted at 2.0 leaf stage, 30 days
Description: (§8) After treating for 30 days in a glass greenhouse at an average atmospheric temperature of 30° C., the herbicidal efficacy thereof was investigated. Evaluation of herbicidal efficacy was carried out by comparing growth inhibition rate (%) with an untreated group, while evaluation of phytotoxicity was carried out by comparing growth inhibition rate (%) with the state of a complete eradication group, and were evaluated at 11 levels indicated below. […] 2: 20% to less than 30% 3: 30% to less than 40% 4: 40% to less than 50% 5: 50% to less than 60% 6: 60% to less than 70% 7: 70% to less than 80% […]

Monochoria vaginalis = experiment: Paddy herbicidal activity test; details: irrigated paddy pot, 30 days
Description: as §8

Echinochloa crus-galli = experiment: Paddy herbicidal activity test; details: irrigated paddy pot, treated at 3.5 leaf stage of Echinochloa crus-galli, 30 days
Description: as §8

Scirpus juncoides = experiment: Paddy herbicidal activity test; details: irrigated paddy pot, 30 days
Description: as §8

Amaranthus retroflexus [5] = experiment: Weed foliar treatment test (Test 3, 1.0 to 2.0 leaf stage); details: foliar spray at 1.0 to 2.0 leaf stage of Digitaria ciliaris, 3 weeks
Description: (§9) Soil was filled into a 1/6000 are pot followed by seeding with Digitaria ciliaris, Chenopodium album and Amaranthus retroflexus, covering with soil, and cultivating in a glass greenhouse at an average atmospheric temperature of 25° C.
as §6, with “150” for “100”, “1.0” for “4.0”, “2.0” for “5.0”, “stage.” for “stage (plant height: 10 cm to 15 cm).”
(§10) After treating for 3 weeks in a glass greenhouse at an average atmospheric temperature of 25° C., the herbicidal efficacy thereof was investigated.
as §4

Chenopodium album [6] = experiment: as above; details: foliar spray at 1.0 to 2.0 leaf stage of Digitaria ciliaris, 3 weeks
Description: as §9
as §6, with “150” for “100”, “1.0” for “4.0”, “2.0” for “5.0”, “stage.” for “stage (plant height: 10 cm to 15 cm).”
as §10, §4

Digitaria ciliaris [7] = experiment: as above; details: foliar spray at 1.0 to 2.0 leaf stage of Digitaria ciliaris, 3 weeks
Description: as §9
as §6, with “150” for “100”, “1.0” for “4.0”, “2.0” for “5.0”, “stage.” for “stage (plant height: 10 cm to 15 cm).”
as §10, §4

SMILES | herbicidal efficacy Amaranthus retroflexus (Amaranthus retroflexus [1]; 5g a.i./10a) | herbicidal efficacy Amaranthus retroflexus (Amaranthus retroflexus [1]; 10g a.i./10a) | herbicidal efficacy Chenopodium album (Chenopodium album [2]; 5g a.i./10a) | herbicidal efficacy Chenopodium album (Chenopodium album [2]; 10g a.i./10a) | herbicidal efficacy Digitaria ciliaris (Digitaria ciliaris [3]; 5g a.i./10a) | herbicidal efficacy Digitaria ciliaris (Digitaria ciliaris [3]; 10g a.i./10a) | herbicidal efficacy Digitaria ciliaris (Digitaria ciliaris [4]) | herbicidal efficacy Galinsoga parviflora (Galinsoga parviflora) | phytotoxicity Oryza sativa (Oryza sativa; 1g a.i./10a) | phytotoxicity Oryza sativa (Oryza sativa; 5g a.i./10a) | herbicidal efficacy Monochoria vaginalis (Monochoria vaginalis; 1g a.i./10a) | herbicidal efficacy Monochoria vaginalis (Monochoria vaginalis; 5g a.i./10a) | herbicidal efficacy Echinochloa crus-galli (Echinochloa crus-galli; 1g a.i./10a) | herbicidal efficacy Echinochloa crus-galli (Echinochloa crus-galli; 5g a.i./10a) | herbicidal efficacy Scirpus juncoides (Scirpus juncoides; 1g a.i./10a) | herbicidal efficacy Scirpus juncoides (Scirpus juncoides; 5g a.i./10a) | herbicidal efficacy Amaranthus retroflexus (Amaranthus retroflexus [5]; 5g a.i./10a) | herbicidal efficacy Amaranthus retroflexus (Amaranthus retroflexus [5]; 10g a.i./10a) | herbicidal efficacy Chenopodium album (Chenopodium album [6]; 5g a.i./10a) | herbicidal efficacy Chenopodium album (Chenopodium album [6]; 10g a.i./10a) | other results
CCOC(=O)N(C(=O)OCC)c1c(C#N)cnn1-c1nn2c(c1Br)CCCC2 [Compound 8] | 10 (10: 100%) | 10 (10: 100%) | 9 (9: 90% to less than 100%) | 9 (9: 90% to less than 100%) | 10 (10: 100%) | 10 (10: 100%) | 10 (10: 100%) | 10 (10: 100%) | 0 (0 (exponent): 0% to less than 10% (growth inhibition rate)) | 1 (1: 10% to less than 20%) | 10 (10: 100%) | 10 (10: 100%) | 10 (10: 100%) | 10 (10: 100%) | 9 (9: 90% to less than 100%) | 9 (9: 90% to less than 100%) | 10 (10: 100%) | 10 (10: 100%) | 10 (10: 100%) | 10 (10: 100%) | herbicidal efficacy Digitaria ciliaris (Digitaria ciliaris [7]; 5g a.i./10a): 10 (10: 100%); herbicidal efficacy Digitaria ciliaris (Digitaria ciliaris [7]; 10g a.i./10a): 10 (10: 100%)
C=CCOC(=O)N(C(=O)OCC=C)c1c(C#N)cnn1-c1nn2c(c1Cl)CCCC2 [Compound 14] | 10 (10: 100%) | 10 (10: 100%) | 9 (9: 90% to less than 100%) | 10 (10: 100%) | 10 (10: 100%) | 10 (10: 100%) | 10 (10: 100%) | 10 (10: 100%) | 1 (1: 10% to less than 20%) | 1 (1: 10% to less than 20%) | 10 (10: 100%) | 10 (10: 100%) | 10 (10: 100%) | 10 (10: 100%) | 9 (9: 90% to less than 100%) | 10 (10: 100%) | 10 (10: 100%) | 10 (10: 100%) | 10 (10: 100%) | 10 (10: 100%) | herbicidal efficacy Digitaria ciliaris (Digitaria ciliaris [7]; 5g a.i./10a): 10 (10: 100%); herbicidal efficacy Digitaria ciliaris (Digitaria ciliaris [7]; 10g a.i./10a): 10 (10: 100%)

Source: patent US10165779B2, “Substituted pyrazolylpyrazole derivative and use of same as herbicide” (KYOYU AGRI CO., LTD., priority 2015, dated 2019)
